# Source: patent publication US9566254B2, “Inhibitors and methods of inhibiting bacterial and viral pathogens” (priority 2010, dated 2017)
# Structures can show the parent of a compound that is named as a salt.
# Columns and labels:
# Test in all cases: microbe, parasite or virus in culture
# Type in all cases: cell-based
# vaccinia virus = conditions: Orthopoxvirus vaccinia, read-out: Avg Activity (VV)
# La Crosse virus (LACV) = conditions: La Crosse virus, Vero, read-out: Avg Activity (LACV)
# Chlamydophila caviae = conditions: Chlamydia caviae, Vero, read-out: Avg Activity (C. Caviae)
SMILES,EC50 (vaccinia virus) [µM],EC50 (La Crosse virus (LACV)) [µM],EC50 (Chlamydophila caviae) [µM]
"CC(C)C(=O)Nc1cccc(NC(=S)NC(=O)c2ccc(C(C)(C)C)cc2)c1 [Compound 57, 4-tert-butyl-N-[[3-(2-methylpropanoylamino)-phenyl]carbamothioyl]-benzamide]",1 to 10,1 to 10,< 1
"CC(C)(C)c1ccc(C(=O)NC(=S)Nc2ccc(NC(=O)c3ccccc3)cc2)cc1 [Compound 43, N-[(4-benzamidophenyl)-carbamothioyl]-4-tert-butyl-benzamide]",< 1,< 1,< 1
"COc1ccc(NC(=S)NC(=O)c2ccc(C(C)(C)C)cc2)cc1 [Compound 68, 4-tert-butyl-N-[(4-methoxyphenyl)-carbamothioyl]benzamide]",1 to 10,> 25,1 to 10
"Cc1ccc(NC(=S)NC(=O)c2ccc(C(C)(C)C)cc2)cc1C [Compound 55, 4-tert-butyl-N-[(3,4-dimethylphenyl)-carbamothioyl]benzamide]",1 to 10,1 to 10,< 1
"Cc1cccc(Cl)c1NC(=S)NC(=O)c1ccc(C(C)(C)C)cc1 [Compound 13, 4-tert-butyl-N-[(2-chloro-6-methyl-phenyl)-carbamothioyl]benzamide]",1 to 10,< 1,< 1
"CCNC(=S)NC(=O)c1ccc(C(C)(C)C)cc1 [Compound 73, 4-tert-butyl-N-(ethylcarbamothioyl)-benzamide]",10 to 25,> 25,> 25
"COc1cccc(NC(=S)NC(=O)c2ccc(C(C)(C)C)cc2)c1 [Compound 66, 4-tert-butyl-N-[(3-methoxyphenyl)-carbamothioyl]benzamide]",1 to 10,> 25,< 1
"Cc1ccc(C)c(NC(=S)NC(=O)c2ccc(C(C)(C)C)cc2)c1 [Compound 67, 4-tert-butyl-N-[(2,5-dimethylphenyl)-carbamothioyl]benzamide]",1 to 10,> 25,< 1
"COC(=O)CC(=O)Nc1ccc(NC(=S)NC(=O)c2ccc(C(C)(C)C)cc2)cc1OC [Compound 35, methyl 3-[4-[(4-tert-butylbenzoyl)carbamo-thioylamino]-2-methoxy-anilino]-3-oxo-propanoate]",10 to 25,> 25,1 to 10
"CCS/C(=N\C(=O)c1ccc(C(C)(C)C)cc1)Nc1ccccc1Cl [Compound 14, (NZ)-4-tert-butyl-N-[(2-chloroanilino)-ethylsulfanyl-methylene]benzamide]",1 to 10,< 1,< 1
"COc1cc(NC(=S)NC(=O)c2ccc(C(C)(C)C)cc2)ccc1NC(=O)CCCCC1SCC2NC(=O)NC21 (centres unmarked) [Compound 25, 4-tert-butyl-N-[[3-methoxy-4-[5-(2-oxo-1,3,3a,4,6,6a-hexahydrothieno[3,4-d]imidazol-4-yl)-pentanoylamino]phenyl]-carbamothioyl]benzamide]",1 to 10,> 25,1 to 10
"CCN(C(=S)NC(=O)c1ccc(C(C)(C)C)cc1)c1ccc(NC(=O)c2ccccc2Cl)c(OC)c1 [Compound 34, N-[4-[(4-tert-butylbenzoyl)-carbamothioyl-ethyl-amino]-2-methoxy-phenyl]-2-chloro-benzamide]",10 to 25,> 25,1 to 10
"COc1cc(NC(=S)NC(=O)c2ccc(C(C)(C)C)cc2)ccc1NC(=O)c1ccc(N)cc1 [Compound 32, N-[[4-[(4-aminobenzoyl)amino]-3-methoxy-phenyl]-carbamothioyl]-4-tert-butyl-benzamide hydrochloride]",10 to 25,10 to 25,< 1
"Cc1ccc(C(=O)NC(=S)Nc2ccc(NC(=O)c3ccc(C(C)(C)C)cc3)cc2)cc1 [Compound 41, N-[[4-[(4-tert-butylbenzoyl)amino]phenyl]carbamothioyl]-4-methyl-benzamide]",< 1,< 1,< 1
"COc1ccccc1NC(=S)NC(=O)c1ccc(C(C)(C)C)cc1 [Compound 51, 4-tert-butyl-N-[(2-methoxyphenyl)-carbamothioyl]benzamide]",1 to 10,1 to 10,< 1
"Cc1cc(C)cc(NC(=S)NC(=O)c2ccc(C(C)(C)C)cc2)c1 [Compound 65, 4-tert-butyl-N-[(3,5-dimethylphenyl)-carbamothioyl]benzamide]",1 to 10,1 to 10,1 to 10
"CCOc1ccccc1NC(=S)NC(=O)c1ccc(C(C)(C)C)cc1 [Compound 56, 4-tert-butyl-N-[(2-ethoxyphenyl)-carbamothioyl]benzamide]",1 to 10,1 to 10,< 1
"COc1cc(NC(=S)NC(=O)c2ccc(C(C)(C)C)cc2)ccc1NC(=O)c1ccccc1N [Compound 28, 2-amino-N-[4-[(4-tert-butylbenzoyl)-carbamothioylamino]-2-methoxy-phenyl]benzamide]",1 to 10,> 25,< 1

SMILES,EC50 (vaccinia virus) [µM],EC50 (La Crosse virus (LACV)) [µM],EC50 (Chlamydophila caviae) [µM]
"COc1cc(NC(=S)NC(=O)c2ccc(C(C)(C)C)cc2)ccc1NS(=O)(=O)c1cccc2c(N(C)C)cccc12 [Compound 16, 4-tert-butyl-N-[[4-[[5-(dimethylamino)-1-naphthyl]sulfonylamino]-3-methoxy-phenyl]-carbamothioyl]benzamide]",1 to 10,1 to 10,< 1
"CCNC(=S)Nc1ccc(NC(=O)c2ccccc2Cl)c(OC)c1 [Compound 33, 2-chloro-N-[4-(ethylcarbamo-thioylamino)-2-methoxy-phenyl]benzamide]",10 to 25,> 25,> 25
"COc1cc(NC(=S)NC(=O)c2ccc(C(C)(C)C)cc2)ccc1NC(=O)c1cccc(CN)c1 [Compound 27, 3-(aminomethyl)-N-[4-[(4-tert-butylbenzoyl)-carbamothioylamino]-2-methoxy-phenyl]benzamide hydrochloride]",1 to 10,> 25,< 1
"CC(C)(C)c1ccc(C(=O)NC(=S)Nc2cccc(Cl)c2)cc1 [Compound 52, 4-tert-butyl-N-[(3-chlorophenyl)-carbamothioyl]benzamide]",1 to 10,1 to 10,< 1
"CC(C)(C)c1ccc(C(=O)NC(=S)Nc2ccc([N+](=O)[O-])cc2)cc1 [Compound 69, 4-tert-butyl-N-[(4-nitrophenyl)-carbamothioyl]benzamide]",1 to 10,> 25,> 25
"CC(C)(C)c1ccc(C(=O)NC(=S)Nc2ccc(Nc3ccncc3)cc2)cc1 [Compound 38, 4-tert-butyl-N-[[4-(4-pyridylamino)phenyl]-carbamothioyl]benzamide hydrochloride]",> 25,1 to 10,> 25
"CC(C)(C)c1ccc(C(=O)NC(=S)Nc2cc(C(F)(F)F)ccc2Cl)cc1 [Compound 44, 4-tert-butyl-N-[[2-chloro-5-(trifluoromethyl)phenyl]-carbamothioyl]benzamide]",< 1,< 1,< 1
"Cc1cccc(NC(=S)NC(=O)c2ccc(C(C)(C)C)cc2)c1Cl [Compound 19, 4-tert-butyl-N-[(2-chloro-3-methyl-phenyl)-carbamothioyl]benzamide]",1 to 10,1 to 10,< 1
"CC(C)(C)c1ccc(C(=O)NC(=S)NC2CCCCC2)cc1 [Compound 64, 4-tert-butyl-N-(cyclohexyl-carbamothioyl)benzamide]",1 to 10,1 to 10,1 to 10
"COc1cc(NC(=S)NC(=N)c2ccc(C(C)(C)C)cc2)ccc1NC(=O)c1ccccc1Cl [Compound 23, N-[4-[(4-tert-butylbenzene-carboximidoyl)-carbamothioylamino]-2-methoxy-phenyl]-2-chloro-benzamide]",1 to 10,1 to 10,< 1
"COc1cc(NC(=S)NC(=O)c2ccc(C(C)(C)C)cc2)ccc1NC(=O)c1ccncc1 [Compound 31, N-[4-[(4-tert-butylbenzoyl)-carbamothioylamino]-2-methoxy-phenyl]pyridine-4-carboxamide]",1 to 10,,< 1
"COc1cc(NC(=S)NC(=O)c2ccc(C(C)(C)C)cc2)ccc1NC(=O)c1ccc(CN)cc1 [Compound 12, hydrochloride]",< 1,> 25,< 1
"CN(C)c1ccc(NC(=S)NC(=O)c2ccc(C(C)(C)C)cc2)c(Cl)c1 [Compound 22, 4-tert-butyl-N-[[2-chloro-4-(dimethylamino)phenyl]-carbamothioyl]benzamide hydrochloride]",1 to 10,1 to 10,< 1
"CC(C)(C)c1ccc(C(=O)NC(=S)Nc2ccccc2F)cc1 [Compound 61, 4-tert-butyl-N-[(2-fluorophenyl)carbamothioyl]-benzamide]",1 to 10,1 to 10,1 to 10
"COc1cc(NC(=S)NC(=O)c2ccc(C(C)(C)C)cc2)ccc1N(C)c1ccccc1Cl [Compound 3, 4-tert-butyl-N-[[4-[(2-chlorophenyl)-methylamino]-3-methoxy-phenyl]-carbamothioyl]-benzamide]",< 1,< 1,< 1
"COc1cc(NC(=S)NC(=O)c2ccc(C(C)(C)C)cc2)ccc1NC(=O)c1cccnc1 [Compound 30, N-[4-[(4-tert-butylbenzoyl)-carbamothioylamino]-2-methoxy-phenyl]pyridine-3-carboxamide]",1 to 10,,< 1
"COc1cc(NC(=S)NC(=O)c2ccc(C(C)(C)C)cc2)ccc1NC(N)=O [Compound 37, 4-tert-butyl-N-[(3-methoxy-4-ureido-phenyl)carbamothioyl]-benzamide]",> 25,1 to 10,
"CC(C)(C)c1ccc(C(=O)NC(=S)Nc2cc(OC(F)(F)F)ccc2Cl)cc1 [Compound 29, 4-tert-butyl-N-[[2-chloro-5-(trifluoromethoxy)phenyl]-carbamothioyl]benzamide]",1 to 10,> 25,
